Legend:
Male buffalo rats = assay: In vivo MR contrast enhancement (signal intensity pre and post contrast), Example 3; conditions: for Liver + Muscle (ratio of liver enhancement to muscle enhancement) / Liver enhancement / Muscle enhancement (paraspinal muscle): scans 30 min after I.V. injection
Protocol: All in vivo imaging was performed on a Siemens 1.5 Tesla magnet (Iselin, N.J.). Spin echo technique was utilized for both T1- and T2-weighted imaging. T1-weighted sequences utilized parameters TR/TE: 400 msec/16 msec, 4 acquisitions, 256 x 256 matrix 16 cm field view for 2 mm thick slices. For T1 calculations, images were acquired using a fixed TE of 28 msec with TR varying from 300, 500, 1500 and 3500 msec. For T2 calculations a fixed TR of 3500 msec was used with TE values of 28, 45, 70, 90 and 150 msec. T1 and T2 calculations were preformed using the software on the Magnetom System (Iselin, N.J.) by selecting a region of interest on the CRT monitor.
Male buffalo rats, weighing approximately 450 grams, were scanned using a 7.5 cm circular surface coil. The animals were scanned in the supine position, and signal intensities of liver, paraspinal muscle, kidney, renal pelvis, bladder and vascular structures were measured pre and post contrast. Rats were imaged pre and post contrast injection of either 0.4 µ Gd-DTPA liposomes (8 rats) or free Gd-DTPA (2 rats).
Injections of the 0.4 µ liposomes prepared in Example 1 were performed by tail vein injection using a 26 gauge butterfly needle. Gd-DTPA liposomes were injected over a period of approximately two minutes; liposomes were diluted with an equal volume of normal saline immediately prior to injection.

Male Wistar rats = assay: In vivo MR contrast enhancement of microemulsified liposomes at 0.5 Tesla, Example 9; conditions: control, dose of 0.1 mmoles/kg; Figure 5
Protocol: All in vivo imaging was performed on a Toshiba MR-50A 0.5 Tesla whole body scanner. Scan parameters were TR = 400 msec TE = 15 msec, 5 mm slice, 1 mm interslice gap, 15 cm field of view with 4 acquisitions using a receive-only surface coil.
Male Wistar rats were scanned in the supine position, and signal intensities of liver, kidney and paraspinal muscle as well as urine, were measured pre and post contrast, with post contrast intervals comprising 15 minutes, 1 hour, 4 hours, 24 hours and 48 hours.
Injections of liposomes prepared as described above were made at concentrations of 0.1, 0.05 and 0.025 mM/kg, based on the weight of the rats, and were carried out by tail vein injection using a 26 gauge butterfly needle. The liposomes were injected over a period of approximately two minutes, and were first diluted with an equal volume of normal saline immediately prior to injection.

[1] = In vitro relaxivity from phantom imaging at 1.5 Tesla, Example 4; format: physicochemical; conditions: phantoms in PBS, T1
Protocol: Phantoms were prepared by diluting the vesicle preparation with Dulbecco's phosphate buffered saline (PBS) (Gibco), so as to obtain several samples for each vesicle preparation with an effective concentration of Gd-DTPA in the range 0.2-2 mmoles. Approximately 10 ml of each dilution was placed in 20 ml plastic syringes (Becton Dickinson), which were sealed with parafilm to prevent leakage and placed in a custom-built acrylic phantom holder which positioned the syringes with their long-axes horizontal within the bore of the magnet.
Phantoms were imaged using a Siemens 1.5 Tesla Magnetom whole body scanner (Iselin, N.J.) using body coil. For T1 calculations, images were acquired using spin-echo sequences with a fixed TE of 17 msec and TR values of 100, 300, 450, 600, 900, 1200, 1800, 2500 and 3500 msec. Other parameters were 4 acquisitions, 256 x 256 matrix, 30 cm field of view and 10 mm slices.

Hepatic Metastases = assay: Blind study detection of hepatic metastases on MR images pre and post contrast by 5 radiologists, Example 7; format: in vivo, rat; conditions: for Accuracy Post: includes adjustment for false positives; for #Post (number of metastases detected on Post contrast scans): one rat per dose, 5 radiologists; for Sensitivity Post: percentage of lesions detected on Post contrast scans
Excerpt: The cell line employed, C5, is a clonal derivative of a rat liver epithelial cell line initially derived from the livers of newborn Fisher rats and subsequently transformed in vitro by transfection with a plasmid containing the T24ras gene driven by the mouse metallothionein promotor. See, Li et al., P.N.A.S., Vol. 35, pp. 344 (1988); Reynolds et al., Oncogene, Vol. 323, pp. 323-330 (1987).
The tumors used in this study were generated by injecting 3 x 10⁵ cells into the superficial lobe of rat livers. Three separate injections of 10⁵ cells were made within an approximate area of 0.5 cm² under direct visualization. The tumors were allowed to grow for 14 to 17 days before imaging followed by sacrifice.
MR imaging was performed on a whole body 1.5 T Siemens Magnetom (Erlangen, West Germany) using a 15 cm Helmholtz receive only coil. Spin echo technique was used with TR/TE of 400 msec/17 msec, 2 mm slices with 4 acquisitions. Images were obtained pre and post contrast in both axial and coronal planes with post contrast images obtained from 5 to 60 minutes post contrast.
Rats were lightly sedated with ether and then fully sedated with I.P. Ketamine/Rompun 0.10 ml/100 g body weight. Contrast injections were performed by tail vein over two minutes with volume approximately 0.5 ml. Doses were as follows: free Gd-DTPA 0.5 and 0.2 mM/kg, 400 nm Gd-DTPA liposomes 0.5, 0.2 and 0.1 mM/Kg and 70 nm Gd-DTPA liposomes 0.5 and 0.2 mM/Kg with one rat injected with each dose.
Pre and post contrast images were separated and, in a blind study, five radiologists experienced in interpreting MR and oncologic imaging were given the MR images to interpret. The MR scans were presented to the radiologists randomly without knowledge of path findings or contrast agent used. The radiologists were instructed to count the number of metastases, plot lesion locations and measure lesion size. The number and sizes of lesions detected were then correlated with the histologic sections and the true number of metastases detected was determined for pre and post contrast scans. The Mann-Whitney test was used to test for statistical significance of results for lesion detection pre and post contrast.
Immediately after imaging, the rats were sacrificed by ether overdose and the livers removed and fixed in 10% formalin. The gross liver specimens were photographed and sectioned in the coronal plant at 2 mm intervals. The number of lesions were counted and size of lesions were measured to correlate with findings on MR images. Microscopic sections were prepared using hematoxylin and eosin stain and studied with light microscopy.

gadolinium diethylenetriamine pentaacetic acid [Free Gd-DTPA]
Liver + Muscle (ratio of liver enhancement to muscle enhancement) (Male buffalo rats; Dose 0.109 mM/Kg): -19.3% | Liver enhancement (Male buffalo rats; Dose 0.109 mM/Kg): 0.0% | Muscle enhancement (paraspinal muscle) (Male buffalo rats; Dose 0.109 mM/Kg): 22.4% | Liver + Muscle (ratio of liver enhancement to muscle enhancement) (Male buffalo rats; Dose 0.218 mM/Kg): 8.2% | Liver enhancement (Male buffalo rats; Dose 0.218 mM/Kg): 11.6% | Muscle enhancement (paraspinal muscle) (Male buffalo rats; Dose 0.218 mM/Kg): 3.1% | enhancement on scans after injection (Male buffalo rats; two control animals, 0.1 and 0.2 millimoles/kg): enhancement of renal cortex, renal pelvis and urinary bladder, but no appreciable enhancement of liver or vascular structures | enhancement on scans (tissue to muscle ratio) (Male Wistar rats): no significant enhancement of the liver, kidney and urine | Relaxivity [1]: 2.79 sec^-1 x mM^-1 | Accuracy Post (Hepatic Metastases; Dose 0.2 mm/kg): 0±0% | #Post (number of metastases detected on Post contrast scans) (Hepatic Metastases; Dose 0.2 mm/kg): 0±0 isointense | Sensitivity Post (Hepatic Metastases; Dose 0.2 mm/kg): 0±0% | Accuracy Post (Hepatic Metastases; Dose 0.5 mm/kg): 40.0±23.5% | #Post (number of metastases detected on Post contrast scans) (Hepatic Metastases; Dose 0.5 mm/kg): 2.80±1.64 | Sensitivity Post (Hepatic Metastases; Dose 0.5 mm/kg): 40.0±23.5% | lesion detection by the five radiologists (Hepatic Metastases; post versus pre contrast, Mann-Whitney test): statistically significant reduction in lesion detection

From patent EP0442962B1, “LIPOSOMAL RADIOLOGIC CONTRAST AGENTS” (UNGER, Evan C, priority 1988, dated 1990)
